This assay has as its system serotonin reuptake (5HT), rat cerebral cortex synaptosomes. Briefly: Inhibition of synaptosomal reuptake of 3H-serotonin (3H-5HT) in cortical synaptosomes. The class given is biochemical, rat (male Sprague-Dawley). As to conditions: 37° C., 5 min, 50 nM 3H-5HT, read-out: IC50 (nM) 5HT (concentration needed to inhibit the uptake of 3H-5HT by 50%). On the procedure:
This general procedure is described in Wong et al., Drug Development Research, 6, 397-403 (1985).
Male Sprague-Dawley rats (110-150 gm) from Harlan Industries (Cumberland, Ind.) were fed Purina Chow ad libitum for at least three days before being used in the study. Rats were killed by decapitation. Whole brains were removed and dissected. Cerebral cortex was homogenized in 9 volumes of a medium containing 0.32 M sucrose and 10 mM glucose. Crude synaptosomal preparations were isolated after differential centrifugation at 1,000 g for 10 min. and 17,000 g for 28 min. The final pellets were suspended in the same medium and kept in ice until use within the same day.
Synaptosomal reuptake of ^3 H-serotonin (^3 H-5-hydroxytryptamine, ^3 H-5HT) was determined as follows: Cortical synaptosomes (equivalent to 1 mg protein) were incubated at 37° C. for 5 min. in 1 mL of Krebs-bicarbonate medium containing also 10 mM glucose, 0.1 mM iproniazide, 1 mM ascorbic acid, 0.17 mM EDTA and 50 nM ^3 H-5HT. The reaction mixture was immediately diluted with 2 mL of ice chilled Krebs-bicarbonate buffer and filtered under vacuum with a cell harvester (Brandel, Gaithersburg, Md.). Filters were rinsed twice with approximately 5 mL ice chilled 0.9% saline and were transferred to a counting vial containing 10 mL of scintillation fluid (PCS, Amersham, Arlington Heights, Ill.). Radioactivity was measured by a liquid scintillation spectrophotometer. Accumulation of ^3 H-5HT at 4° C. represented the background and was subtracted from all samples.
As for `CN1C[C@@H]2CN(C3CCc4ccccc4C3)C[C@@H]2C1` (relative stereo) [Example 1, cis-hexahydro-2-methyl-5-(1,2,3,4-tetrahydro-2-naphthalenyl) pyrrolo<3,4-c>pyrrole dimaleate], the IC50 was found to be 122 nM.

Turning to `CN1C[C@@H]2CN(C3CCc4cccc(Cl)c4C3)C[C@@H]2C1` (relative stereo) [Example 2, cis-hexahydro-2-methyl-5-(1,2,3,4-tetrahydro-8-chloro-2-naphthalenyl)pyrrolo<3,4-c>pyrrole dimaleate], the IC50 turned out to be 42 nM.

Turning to `COc1cccc2c1CC(N1C[C@H]3CN(C)C[C@H]3C1)CC2` (relative stereo) [Example 3, cis-hexahydro-2-methyl-5-(1,2,3,4-tetrahydro-8-methoxy-2-naphthalenyl)pyrrolo<3,4-c>pyrrole dimaleate], the IC50 came out at 20 nM.

For the compound `CN1C[C@@H]2CN(C3CCc4cccc(O)c4C3)C[C@@H]2C1` (relative stereo) [Example 4, cis-hexahydro-2-methyl-5-(1,2,3,4-tetrahydro-8-hydroxy-2-naphthalenyl)pyrrolo<3,4-c>pyrrole dimaleate], the IC50 was determined as 5.4 nM.

Take `COc1ccc(Br)c2c1CC(N1C[C@H]3CN(C)C[C@H]3C1)CC2` (relative stereo) [Example 5, cis-hexahydro-2-methyl-5-(1,2,3,4-tetrahydro-5-bromo-8-methoxy-2-naphthalenyl)pyrrolo<3,4-c>pyrrole dimaleate]: the IC50 turned out to be 38 nM.

For `COc1cccc2c1CC(N1C[C@H]3CN(Cc4ccccc4)C[C@H]3C1)CC2` (relative stereo) [Example 6, cis-hexahydro-2-benzyl-5-(1,2,3,4-tetrahydro-8-methoxy-2-naphthalenyl)pyrrolo<3,4-c>pyrrole dimaleate], the IC50 came to 60 nM.

Consider `COc1cccc2c1CC(N1C[C@H]3CNC[C@H]3C1)CC2` (relative stereo) [Example 7, cis-hexahydro-5-(1,2,3,4-tetrahydro-8-methoxy-2-naphthalenyl)pyrrolo<3,4-c>pyrrole dimaleate], for which the IC50 amounted to 30 nM.

Turning to `COc1ccc(Br)c2c1CC(N1C[C@H]3CNC[C@H]3C1)CC2` (relative stereo) [Example 8, cis-hexahydro-5-(1,2,3,4-tetrahydro-5-bromo-8-methoxy-2-naphthalenyl)pyrrolo<3,4-c>pyrrole dimaleate], the IC50 stood at 50 nM.

With `Cc1cccc2c1CC(N1C[C@H]3CN(C)C[C@H]3C1)CC2` (relative stereo) [Example 9, cis-hexahydro-2-methyl-5-(1,2,3,4-tetrahydro-8-methyl-2-naphthalenyl)pyrrolo<3,4-c>pyrrole dimaleate], the IC50 amounted to 293 nM.

`Cc1ccc(Br)c2c1CC(N1C[C@H]3CN(C)C[C@H]3C1)CC2` (relative stereo) [Example 10, cis-hexahydro-2-methyl-5-(1,2,3,4-tetrahydro-5-bromo-8-methyl-2-naphthalenyl)pyrrolo<3,4-c>pyrrole dimaleate]: the IC50 was 413 nM.

For the compound `COc1cccc2c1[C@@H](C)[C@@H](N1C[C@H]3CN(C)C[C@H]3C1)CC2` (relative stereo) [Example 11, cis-hexahydro-2-methyl-5-(cis-1-methyl-1,2,3,4-tetrahydro-8-methoxy-2-naphthalenyl)pyrrolo<3,4-c>pyrrole dimaleate], the IC50 came out at 65 nM.

As to `COc1cccc2c1[C@@H](C)[C@@H](N1C[C@H]3CNC[C@H]3C1)CC2` (relative stereo) [Example 12, cis-hexahydro-5-(cis-1-methyl-1,2,3,4-tetrahydro-8-methoxy-2-naphthalenyl)pyrrolo<3,4-c>pyrrole dimaleate], the IC50 stood at 340 nM.
